Source: patent US7531573B2 (priority 1994, dated 2009)
Like-named read-outs stand apart in the source and are kept apart here.

Key:
[1] = tested on: NIH 3T3 mouse fibroblast cells; experiment: Mitogen-induced cell proliferation; format: cell-based; conditions: for inhibition at 10 µM: NIH3T3, read-out: Mitogen-induced cell proliferation % Inhibition
From the text: Other cell lines, e.g., cancer cells, endothelial cells and fibroblasts, as well as many others, may be used in the cell proliferation assay. Selection of a particular cell line will depend in part on the desired application, and is well within the capabilities of an ordinarily skilled artisan.

Gardos channel = Gardos channel (Homo sapiens, UniProt O15554); format: binding
Gardos channel, sequence (O15554 whole entry): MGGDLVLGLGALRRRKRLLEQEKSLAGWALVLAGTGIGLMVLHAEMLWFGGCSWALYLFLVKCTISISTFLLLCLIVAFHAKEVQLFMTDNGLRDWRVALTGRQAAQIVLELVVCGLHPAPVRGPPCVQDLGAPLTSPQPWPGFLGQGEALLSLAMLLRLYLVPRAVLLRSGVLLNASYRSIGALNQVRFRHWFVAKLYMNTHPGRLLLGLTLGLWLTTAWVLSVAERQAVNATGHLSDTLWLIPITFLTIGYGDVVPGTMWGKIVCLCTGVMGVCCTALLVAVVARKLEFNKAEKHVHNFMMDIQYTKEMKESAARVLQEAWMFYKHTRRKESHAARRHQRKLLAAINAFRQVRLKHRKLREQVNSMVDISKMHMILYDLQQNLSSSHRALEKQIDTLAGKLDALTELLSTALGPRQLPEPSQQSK

[2] = target: T1, red cell calcium-activated potassium transport (Homo sapiens, UniProt O15554); experiment: Red cell Ca2+-activated 86Rb influx inhibition after oral Clotrimazole; format: in vivo; conditions: for Ca2+-activated 86Rb influx inhibition %: Subject A
T1 construct: endogenous in cells; host or cells: red cells of two normal human subjects
T1 sequence (O15554 whole entry): as above
Method: Two subjects, […] (A, 72 kg) and […] (D, 56 kg), ingested one 500 mg CLT tablet every twelve hours for six days, corresponding to a daily CLT dose of 14 and 18 mg/kg, respectively.

red cell Gardos channel = red cell Gardos channel (Homo sapiens, UniProt O15554); experiment: cell-based
red cell Gardos channel, sequence (O15554 whole entry): as above
Method: CLT and metabolite B (Compound 6) were incubated with a red cell suspension at 20% Hct.

[3] = tested on: MM-RU human melanoma cells; experiment: SCID mice inoculated with MM-RU human melanoma cells, lung metastases; format: in vivo; conditions: 120 mg/Kg subcutaneous daily for 10 weeks
Method: Mice with severe combined immunodeficiency disease (SCID) were inoculated via the lateral tail vein with approximately 2.5×10^6 MM-RU human melanoma cells, a cell line that produces metastases only in the lungs (Byers et al., 1993, Melanoma Res. 3:247-253). Starting on the day of inoculation, subcutaneous injections of either vehicle (control group, n=9) or CLT (120 mg/Kg; treatment group, n=10) was administered daily for a period of 10 weeks. At the end of the 10 week treatment period, the mice were sacrificed and examined for metastases.

[4] = target: T1, red cell calcium-activated potassium transport; experiment: Red cell Ca2+-activated 86Rb influx inhibition after oral Clotrimazole; format: in vivo; conditions: Subject B
[5] = target: Gardos channel of erythrocytes (Homo sapiens, UniProt O15554); experiment: cell-based
Gardos channel of erythrocytes, sequence (O15554 whole entry): as above

clinical = format: in vivo; conditions: human, plasma, read-out: Levels Plasma; for concentration at 6 day of CLT dosing: CLT day 6; for concentration at 10 day (wash-out): Wash-out day 10; for concentration at 13 day (wash-out): Wash-out day 13; for concentration at 20 day (wash-out): Wash-out day 20
[6] = tested on: Human melanoma cells (MM-RU); experiment: [3H]thymidine uptake in MM-RU cells; format: cell-based; conditions: 10 μM
Method: (§1) Human melanoma cells (MM-RU) and colon adenocarcinoma cells (HT29) were cultured in the presence and absence of 10 μM CLT metabolite B (Compound 6) as described in Benzaquen et al., 1995, Nature Medicine 1:534-540 and the level of DNA synthesis determined by measuring [^3H]thymidine uptake.

[7] = tested on: colon adenocarcinoma cells (HT29); experiment: [3H]thymidine uptake in HT29 cells; format: cell-based, human; conditions: 10 μM
Method: as §1

[8] = tested on: hepatic microsomal cytochrome P450; conditions: rats; Matsuura et al., 1991; cited from earlier work
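Wherever Levels Plasma is given: oral tablet given every 12 h for six days, about 14 mg/kg per day for this subject, with levels then followed in plasma.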

## Clc1ccccc1C(c1ccccc1)(c1ccccc1)n1ccnc1 [Clotrimazole, reference compound]
[1]
  inhibition at 10 µM: 93%
Gardos channel
  125I-ChTX Binding: 1.000
  Displacement (%): 41.6%
[2]; CLT day 3
  Ca2+-activated 86Rb influx inhibition %: 74 ± 5%
[2]; CLT day 6
  Ca2+-activated 86Rb influx inhibition %: 73 ± 4%
[2]; Wash-out day 6
  Ca2+-activated 86Rb influx inhibition %: 71 ± 7%
[2]; Wash-out day 10
  Ca2+-activated 86Rb influx inhibition %: 75 ± 11%
[2]; Wash-out day 13
  Ca2+-activated 86Rb influx inhibition %: 58 ± 9%
[2]; Wash-out day 20
  Ca2+-activated 86Rb influx inhibition %: 0 ± 10%
[2]; two subjects, oral CLT for six days
  persistence of inhibition of calcium-activated potassium transport after the drugs were discontinued: at least 7 days
Red cell Gardos channel
  concentration at which inhibition of K+ transport reached maximal levels: 5 µM
Red cell Gardos channel; 1 nM
  % control: 100.3%
  flux: 1.155
  inhibition at 0.001 µM: -0.3%
Red cell Gardos channel; 10 nM
  % control: 97.6%
  flux: 1.124
  inhibition at 0.01 µM: 2.4%
Red cell Gardos channel; 100 nM
  % control: 77.4%
  flux: 0.892
  inhibition at 0.1 µM: 22.6%
Red cell Gardos channel; 500 nM
  % control: 45.0%
  flux: 0.518
  inhibition at 0.5 µM: > 50%
Red cell Gardos channel; 1 μM
  % control: 21.5%
  flux: 0.248
  inhibition at 1 µM: 78.5%
Red cell Gardos channel; 5 μM
  % control: 3.3%
  flux: 0.038
  inhibition at 5 µM: 96.7%
Red cell Gardos channel; 10 μM
  % control: 3.7%
  flux: 0.043
  inhibition at 10 µM: 96.3%
[3]; SCID mice
  number of microscopic metastases: 7±2
  number of pleural metastases: 2±1
  systemic metastatic disease or toxicity: did not show any evidence of systemic metastatic disease or toxicity
  weight gain: gained weight in comparable amounts
[3]; n=10
  treated animals free of macroscopic metastases: half
  treated animals without evidence of microscopic metastases: two
[4]; CLT day 3
  Ca2+-activated 86Rb influx inhibition %: 80 ± 28%
[4]; CLT day 6
  Ca2+-activated 86Rb influx inhibition %: 83 ± 7%
[4]; Wash-out day 8
  Ca2+-activated 86Rb influx inhibition %: 79 ± 21%
[4]; Wash-out day 10
  Ca2+-activated 86Rb influx inhibition %: 82 ± 4%
[4]; Wash-out day 13
  Ca2+-activated 86Rb influx inhibition %: 37 ± 30%
[4]; Wash-out day 20
  Ca2+-activated 86Rb influx inhibition %: 0 ± 13%

## OC(c1ccccc1)(c1ccccc1)c1ccccc1Cl [Compound 6, 2-chlorophenyl-diphenylmethanol]
[1]
  inhibition at 10 µM: 31%
[1]; NIH3T3, read-out: Mitogen-induced cell proliferation IC50
  IC50: 2100 nM
[5]
  IC50: 961 nM
[5]; read-out: Gardos Channel % Inhibition
  inhibition at 10 µM: 98%
Gardos channel; 1 nM, red cells
  125I-ChTX Binding: 1.403
Gardos channel; 10 nM, red cells
  125I-ChTX Binding: 1.399
Gardos channel; 100 nM, red cells
  125I-ChTX Binding: 1.239
  Displacement (%): 6.0%
Gardos channel; 500 nM, red cells
  125I-ChTX Binding: 1.134
  Displacement (%): 21.6%
Gardos channel; 1 μM, red cells
  125I-ChTX Binding: 1.327
Gardos channel; 5 μM, red cells
  125I-ChTX Binding: 1.016
  Displacement (%): 39.2%
Gardos channel; 10 μM, red cells
  125I-ChTX Binding: 0.790
  Displacement (%): 72.9%
Gardos channel; red cells
  Displacement of 125I-ChTX binding (in words): specifically displaces
clinical; oral, 500 mg, Subject A
  concentration at 6 day of CLT dosing: 1100 nM
  concentration at 10 day (wash-out): < 100 nM
  concentration at 13 day (wash-out): 0 nM
  concentration at 20 day (wash-out): 0 nM
clinical; oral, 500 mg, Subject A, Wash-out day 6
  concentration at 6 day (wash-out): < 100 nM
clinical; oral, 500 mg, Subject B, CLT day 3
  concentration at 3 day of CLT dosing: 800 nM
clinical; oral, 500 mg, Subject B
  concentration at 6 day of CLT dosing: 1350 nM
  concentration at 10 day (wash-out): < 100 nM
  concentration at 13 day (wash-out): 0 nM
  concentration at 20 day (wash-out): 0 nM
clinical; oral, 500 mg, Subject B, Wash-out day 8
  concentration at 8 day (wash-out): < 100 nM
clinical; Subject A, CLT day 3, oral CLT 500 mg every twelve hours
  concentration at 3 day of CLT dosing: 1100 nM
Red cell Gardos channel
  IC50: 720 ± 190 nM
  IC50 for inhibition of K+ transport relative to IC50 for displacement of 125I-ChTX: two to three fold lower
  concentration at which inhibition of K+ transport reached maximal levels: 10 µM
Red cell Gardos channel; 1 nM
  % control: 125.3%
  flux: 1.444
  inhibition at 0.001 µM: -25.3%
Red cell Gardos channel; 10 nM
  % control: 96.8%
  flux: 1.115
  inhibition at 0.01 µM: 3.2%
Red cell Gardos channel; 100 nM
  % control: 82.6%
  flux: 0.952
  inhibition at 0.1 µM: 17.4%
Red cell Gardos channel; 500 nM
  % control: 62.2%
  flux: 0.717
  inhibition at 0.5 µM: 37.8%
Red cell Gardos channel; 1 μM
  % control: 37.9%
  flux: 0.437
  inhibition at 1 µM: > 50%
Red cell Gardos channel; 5 μM
  % control: 21.7%
  flux: 0.25
  inhibition at 5 µM: 78.3%
Red cell Gardos channel; 10 μM
  % control: 9.8%
  flux: 0.113
  inhibition at 10 µM: 90.2%
[6]
  inhibition of [3H]thymidine uptake versus controls: about 60%
[7]
  inhibition of [3H]thymidine uptake versus controls: about 50%
other
  melting point: 92 to 93.5 °C
[8]
  induction of hepatic microsomal cytochrome P450: does not induce
